Counter-ions that a name gives are not always drawn.

This experiment concerns the target T1, Brd4 bromodomain 1 (BRD4(1)) (Homo sapiens, UniProt O60885).
T1 construct: Illustrative results with the first bromodomain of Brd4; made in house; host or cells: E. coli BL21 (DE3)
The experiment is described as follows: Inhibition of tetra-acetylated histone H4 binding to Brd4 bromodomain 1 (TR-FRET). More on the design: key: Active: Compounds with an IC50 value less than 30 μM were deemed to be active.; Not Active: Compounds with an IC50 value less than 30 μM were deemed to be active. The following applies: tetra-acetylated histone H4 peptide, active = IC50 <30 μM. How it is done: Proteins were cloned and overexpressed with a N-terminal 6×His tag, then purified by nickel affinity followed by size exclusion chromatography. Briefly, E. coli BL21 (DE3) cells were transformed with a recombinant expression vector encoding N-terminally Nickel affinity tagged bromodomains from Brd2, Brd3, Brd4. Cell cultures were incubated at 37° C. with shaking to the appropriate density and induced overnight with IPTG. The supernatant of lysed cells was loaded onto Ni-IDA column for purification. Eluted protein is pooled, concentrated and further purified by size exclusion chromatography. Fractions representing monomeric protein were pooled, concentrated, aliquoted, and frozen at −80° C. for use in subsequent experiments.
Binding of tetra-acetylated histone H4 and BET bromodomains was confirmed by a Time Resolved Fluorescence Resonance Energy Transfer (TR-FRET) method. N-terminally His-tagged bromodomains (200 nM) and biotinylated tetra-acetylated histone H4 peptide (25-50 nM, Millipore) were incubated in the presence of Europium Cryptate-labeled streptavidin (Cisbio Cat. #610SAKLB) and XL665-labeled monoclonal anti-His antibody (Cisbio Cat. #61HISXLB) in a white 96 well microtiter plate (Greiner). For inhibition assays, serially diluted test compound was added to these reactions in a 0.2% final concentration of DMSO. Final buffer concentrations were 30 mM HEPES pH 7.4, 30 mM NaCl, 0.3 mM CHAPS, 20 mM phosphate pH 7.0, 320 mM KF, 0.08% BSA). After a 2-h incubation at room temperature, the fluorescence by FRET was measured at 665 and 620 nm by a SynergyH4 plate reader (Biotek). Illustrative results with the first bromodomain of Brd4 and the second bromodomain of Brd2 are shown below. The binding inhibitory activity was shown by a decrease in 665 nm fluorescence relative to 620 nm. IC50 values were determined from a dose response curve.
(In general: Time-resolved FRET reads energy transfer from a long-lived donor to a nearby acceptor.)
Regarding `Cc1noc(C)c1-c1cc(N2CCN(C)CC2)c(=O)n(Cc2ccccc2)c1` [Example 153, 1-Benzyl-5-(3,5-dimethylisoxazol-4-yl)-3-(4-methylpiperazin-1-yl)pyridin-2(1H)-one Hydrochloride], the “FRET activity (IC50 <30 μM) BRD4(1)” value was “Active”.

With `COc1cc(=O)n(Cc2ccccc2)cc1-c1c(C)noc1C` [Example 154, 1-Benzyl-5-(3,5-dimethylisoxazol-4-yl)-4-methoxypyridin-2(1H)-one], the “FRET activity (IC50 <30 μM) BRD4(1)” value is on record as “Active”. As to `Cc1noc(C)c1-c1cc(Nc2ccc(F)cc2)c(=O)n(Cc2ccccc2)c1` [Example 156, 1-Benzyl-5-(3,5-dimethylisoxazol-4-yl)-3-((4-fluorophenyl)amino)pyridin-2(1H)-one], the “FRET activity (IC50 <30 μM) BRD4(1)” value is “Active”.

In the case of `Cc1onc(CO)c1-c1ccc(=O)n(Cc2ccc(Cl)cc2)c1` [Example 159, 1-(4-Chlorobenzyl)-5-(3-(hydroxymethyl)-5-methylisoxazol-4-yl)pyridin-2(1H)-one], the “FRET activity (IC50 <30 μM) BRD4(1)” value is on record as “Active”. For the molecule `Cc1noc(C)c1-c1cc(N2CCNCC2)c(=O)n(Cc2ccccc2)c1` [Example 161, 1-Benzyl-5-(3,5-dimethylisoxazol-4-yl)-3-(piperazin-1-yl)pyridin-2(1H)-one Hydrochloride], the “FRET activity (IC50 <30 μM) BRD4(1)” value was “Not Active”.

With `CC(c1ccccc1)n1nc(-c2ccc(O)cc2)ccc1=O` (stereo not drawn) [Example 178, 6-(4-hydroxyphenyl)-2-(1-phenylethyl)pyridazin-3(2H)-one], the “FRET activity (IC50 <30 μM) BRD4(1)” value is reported as “Active”. Then `Cc1noc(C)c1-c1cc(Nc2ccncc2)c(=O)n(Cc2ccccc2)c1` [Example 195, 1-benzyl-5-(3,5-dimethylisoxazol-4-yl)-3-(pyridin-4-ylamino)pyridin-2(1H)-one], with “Active”. Take `Cc1nsc(C)c1-c1ccc(=O)n(Cc2ccccc2)c1` [Example 196, 1-benzyl-5-(3,5-dimethylisothiazol-4-yl)pyridin-2(1H)-one]: the “FRET activity (IC50 <30 μM) BRD4(1)” value is recorded as “Active”. Then `Cc1nnc(C)n1-c1ccc(=O)n(Cc2ccc(Cl)cc2)c1` [Example 197, 1-(4-chlorobenzyl)-5-(3,5-dimethyl-4H-1,2,4-triazol-4-yl)pyridin-2(1H)-one], with “Not Active”; and `COC(=O)c1noc(C)c1-c1ccc(=O)n(Cc2ccc(Cl)cc2)c1` [Example 199, Methyl 4-(1-(4-chlorobenzyl)-6-oxo-1,6-dihydropyridin-3-yl)-5-methylisoxazole-3-carboxylate], with “Not Active”. On to `Cc1noc(C)c1-c1cc(NS(C)(=O)=O)c(=O)n(Cc2ccccc2)c1` [Example 200, N-(1-Benzyl-5-(3,5-dimethylisoxazol-4-yl)-2-oxo-1,2-dihydropyridin-3-yl)methanesulfonamide], for which the “FRET activity (IC50 <30 μM) BRD4(1)” value is “Not Active”.

Turning to `Cc1noc(C)c1CNc1ccc(=O)n(Cc2ccccc2)n1` [Example 201, 2-Benzyl-6-(((3,5-dimethylisoxazol-4-yl)methyl)amino)pyridazin-3(2H)-one], the “FRET activity (IC50 <30 μM) BRD4(1)” value is reported as “Not Active”.

`Cc1onc(C(N)=O)c1-c1ccc(=O)n(Cc2ccc(Cl)cc2)c1` [Example 202, 4-(1-(4-Chlorobenzyl)-6-oxo-1,6-dihydropyridin-3-yl)-5-methylisoxazole-3-carboxamide]: the “FRET activity (IC50 <30 μM) BRD4(1)” value is recorded as “Active”.

`Cc1noc(C)c1-c1cc(-n2ccnc2)c(=O)n(Cc2ccccc2)c1` [Example 204, 1-benzyl-5-(3,5-dimethylisoxazol-4-yl)-3-(1H-imidazol-1-yl)pyridin-2(1H)-one]: the “FRET activity (IC50 <30 μM) BRD4(1)” value was “Active”. `Cc1noc(C)c1-c1cc(N)c(=O)n(C)c1` [Example 224, 3-Amino-5-(3,5-dimethylisoxazol-4-yl)-1-methylpyridin-2(1H)-one]: the “FRET activity (IC50 <30 μM) BRD4(1)” value is listed as “Active”. Consider `Cc1onc(C(=O)O)c1-c1ccc(=O)n(Cc2ccc(Cl)cc2)c1` [Example 225, 4-(1-(4-Chlorobenzyl)-6-oxo-1,6-dihydropyridin-3-yl)-5-methylisoxazole-3-carboxylic acid], for which the “FRET activity (IC50 <30 μM) BRD4(1)” value is “Not Active”. In the case of `Cc1noc(C)c1-c1cc(C(=O)O)c(=O)n(Cc2ccccc2)c1` [Example 229, 1-Benzyl-5-(3,5-dimethylisoxazol-4-yl)-2-oxo-1,2-dihydropyridine-3-carboxylic acid], the “FRET activity (IC50 <30 μM) BRD4(1)” value is listed as “Active”. For `Cc1noc(C)c1-c1cc(Nc2ccc(C#N)nc2)c(=O)n(Cc2ccccc2)c1` [Example 232, 5-((1-benzyl-5-(3,5-dimethylisoxazol-4-yl)-2-oxo-1,2-dihydropyridin-3-yl)amino)picolinonitrile], the “FRET activity (IC50 <30 μM) BRD4(1)” value is “Active”. Next, `COc1ccc(Nc2cc(-c3c(C)noc3C)cn(Cc3ccccc3)c2=O)cn1` [Example 234, 1-benzyl-5-(3,5-dimethylisoxazol-4-yl)-3-((6-methoxypyridin-3-yl)amino)pyridin-2(1H)-one]: “Active”; `Cc1noc(C)c1-c1cc(Nc2cnccn2)c(=O)n(Cc2ccccc2)c1` [Example 235, 1-benzyl-5-(3,5-dimethylisoxazol-4-yl)-3-(pyrazin-2-ylamino)pyridin-2(1H)-one]: “Active”; `Cc1noc(C)c1-c1cc(Nc2cncnc2)c(=O)n(Cc2ccccc2)c1` [Example 236, 1-benzyl-5-(3,5-dimethylisoxazol-4-yl)-3-(pyrimidin-5-ylamino)pyridin-2(1H)-one]: “Active”. Regarding `Cc1noc(C)c1-c1cc(NC2CCNC2)c(=O)n(Cc2ccccc2)c1` (stereo not drawn) [Example 239, 1-benzyl-5-(3,5-dimethylisoxazol-4-yl)-3-(pyrrolidin-3-ylamino)pyridin-2(1H)-one], the “FRET activity (IC50 <30 μM) BRD4(1)” value is on record as “Active”. On to `Cc1noc(C)c1-c1cc(NCC(F)(F)F)c(=O)n(Cc2ccc(Cl)cc2)c1` [Example 243, 1-(4-Chlorobenzyl)-5-(3,5-dimethylisoxazol-4-yl)-3-((2,2,2-trifluoroethyl)amino)pyridin-2(1H)-one], for which the “FRET activity (IC50 <30 μM) BRD4(1)” value is reported as “Active”. Take `Cc1ccc(Nc2cc(-c3c(C)noc3C)cn(Cc3ccccc3)c2=O)cn1` [Example 245, 1-benzyl-5-(3,5-dimethylisoxazol-4-yl)-3-((6-methylpyridin-3-yl)amino)pyridin-2(1H)-one]: the “FRET activity (IC50 <30 μM) BRD4(1)” value was “Active”. Take `Cc1noc(C)c1-c1cc(Nc2cccnc2)c(=O)n(Cc2ccccc2)n1` [Example 248, 2-benzyl-6-(3,5-dimethylisoxazol-4-yl)-4-(pyridin-3-ylamino)pyridazin-3(2H)-one]: the “FRET activity (IC50 <30 μM) BRD4(1)” value was “Active”. In the case of `CON(C)C(=O)c1noc(C)c1-c1ccc(=O)n(Cc2ccccc2)c1` [Example 249, 4-(1-benzyl-6-oxo-1,6-dihydropyridin-3-yl)-N-methoxy-N,5-dimethylisoxazole-3-carboxamide], the “FRET activity (IC50 <30 μM) BRD4(1)” value is “Not Active”. Consider `Cc1noc(C)c1-c1cc(N)c(=O)n(Cc2ccncc2Cl)c1` [Example 253], for which the “FRET activity (IC50 <30 μM) BRD4(1)” value was “Active”. Consider `Cc1noc(C)c1-c1cc(N)c(=O)n(Cc2cccc3c2OCO3)c1` [Example 257, 3-amino-1-(benzo[d][1,3]dioxol-4-ylmethyl)-5-(3,5-dimethylisoxazol-4-yl)pyridin-2(1H)-one], for which the “FRET activity (IC50 <30 μM) BRD4(1)” value was “Active”. For the molecule `COC(=O)c1onc(C)c1-c1ccc(=O)n(Cc2ccc(Cl)cc2)c1` [Example 259, methyl 4-(1-(4-chlorobenzyl)-6-oxo-1,6-dihydropyridin-3-yl)-3-methylisoxazole-5-carboxylate], the “FRET activity (IC50 <30 μM) BRD4(1)” value is on record as “Not Active”.

In the case of `Cc1noc(C(=O)O)c1-c1ccc(=O)n(Cc2ccc(Cl)cc2)c1` [Example 260, 4-(1-(4-chlorobenzyl)-6-oxo-1,6-dihydropyridin-3-yl)-3-methylisoxazole-5-carboxylic acid], the “FRET activity (IC50 <30 μM) BRD4(1)” value was “Not Active”. Consider `CNC(=O)c1onc(C)c1-c1ccc(=O)n(Cc2ccc(Cl)cc2)c1` [Example 265, 4-(1-(4-chlorobenzyl)-6-oxo-1,6-dihydropyridin-3-yl)-N,3-dimethylisoxazole-5-carboxamide], for which the “FRET activity (IC50 <30 μM) BRD4(1)” value is given as “Not Active”. In the case of `Cc1noc(C)c1-c1cc(CN)c(=O)n(Cc2ccccc2)c1` [Example 266, 3-(Aminomethyl)-1-benzyl-5-(3,5-dimethylisoxazol-4-yl)pyridin-2(1H)-one], the “FRET activity (IC50 <30 μM) BRD4(1)” value is “Not Active”.

As to `O=C1CC(c2ccc(=O)n(Cc3ccccc3)c2)CN1` (stereo not drawn) [Example 268, 1-Benzyl-5-(5-oxopyrrolidin-3-yl)pyridin-2(1H)-one], the “FRET activity (IC50 <30 μM) BRD4(1)” value was “Not Active”.

For the origin of these results see patent US9271978B2 (Zenith Epigenetics Corp., priority 2012, dated 2016).
